Source: ChEMBL document CHEMBL4706629, “New derivatives of 4'-phenyl-2,2':6',2″-terpyridine as promising anticancer agents” (Eur J Med Chem, 2021)
The source made the active and inactive calls. The rule behind the calls is not given here.

Tests used:
HCT-116 = test: Cytotoxicity against human HCT-116 cells assessed as reduction in cell viability measured after 72 hrs by MTS assay; format: functional, cell-based; details: HCT-116, 72 h
DNA [1] = test: Induction of Escherichia coli supercoiled pUC19 plasmid DNA cleavage assessed as increase in open circular form of a plasmid at 25 uM incubated for 60 mins by agarose gel electrophoresis analysis; format: nucleic-acid assay
MCF7 [2] = test: Cell cycle arrest in human MCF7 cells assessed as accumulation at G0/G1-phase at 5 uM measured after 24 hrs by muse cell analyser (reference value: 52.65 to 53.3%); format: functional
PANC-1 [3] = test: Induction of apoptosis in human PANC-1 cells assessed as early apoptotic cells at 7.5 uM measured after 48 hrs by Annexin V and dead cell kit analysis (reference value: 10.95%); format: functional
PANC-1 [4] = test: Cell cycle arrest in human PANC-1 cells assessed as accumulation at G0/G1-phase at 2.5 uM measured after 24 hrs by muse cell analyser (reference value: 48.28 to 48.7%); format: functional
PANC-1 [5] = test: Up regulation of p53 expression in human PANC-1 cells at 0.5 to 5 uM measured after 24 hrs by Western blot analysis relative to control; format: functional, cell-based; details: dose 0.5-5 µM
DNA [6] = test: Induction of Escherichia coli supercoiled pUC19 plasmid DNA cleavage assessed as decrease in supercoiled form of plasmid at 25 uM incubated for 60 mins by agarose gel electrophoresis analysis; format: nucleic-acid assay
PANC-1 [7] = test: Induction of autophagy in human PANC-1 cells assessed as increase in LC3 expression at 1 uM measured after 24 hrs by muse cell analyzer based fluorescence assay relative to control; format: functional
PANC-1 [8] = test: Induction of apoptosis in human PANC-1 cells measured after 48 hrs by Annexin V and dead cell kit analysis; format: functional, cell-based; details: dose 5-7.5 µM
PANC-1 [9] = test: Cell cycle arrest in human PANC-1 cells assessed as accumulation at S-phase at 7.5 uM measured after 24 hrs by muse cell analyser (reference value: 14.3 to 14.9%); format: functional
MCF7 [10] = test: Up regulation of p53 expression in human MCF7 cells at 1 to 5 uM measured after 24 hrs by Western blot analysis; format: functional, cell-based; details: dose 1-5 µM
MCF7 [11] = test: Induction of apoptosis in human MCF7 cells assessed as necrotic cells at 5 uM measured after 48 hrs by Annexin V and dead cell kit analysis (reference value: 0.5%); format: functional
MCF7 [12] = test: Induction of apoptosis in human MCF7 cells assessed as early apoptotic cells at 7.5 uM measured after 48 hrs by Annexin V and dead cell kit analysis (reference value: 0.65%); format: functional
MCF7 [13] = test: Induction of apoptosis in human MCF7 cells assessed as late apoptotic cells at 7.5 uM measured after 48 hrs by Annexin V and dead cell kit analysis (reference value: 1.45%); format: functional
PANC-1 [14] = test: Cytotoxicity against human PANC-1 cells assessed as reduction in cell viability measured after 72 hrs by MTS assay; format: functional, cell-based; details: PANC-1, 72 h
MCF7 [15] = test: Induction of reactive oxygen species generation in human MCF7 cells at 1 uM measured after 24 hrs by cellrox-green reagent based assay relative to control; format: functional
NHDF = test: Cytotoxicity against NHDF cells assessed as reduction in cell viability measured after 72 hrs by MTS assay; format: cell-based; details: Homo sapiens
PANC-1 [16] = test: Cell cycle arrest in human PANC-1 cells assessed as increase in accumulation at G0/G1-phase measured after 24 hrs by muse cell analyser; format: functional, cell-based

c1ccc(-c2cn(-c3ccc(-c4cc(-c5ccccn5)nc(-c5ccccn5)c4)cc3)nn2)nc1
IC50 (HCT-116): 243 nM
Activity (DNA [1]): Active
Activity (MCF7 [2]): 55.97%
Activity (PANC-1 [3]): 54.6%
Activity (PANC-1 [4]): 53.98%
Activity (PANC-1 [5]): inactive
Activity (DNA [6]): Active
fold change (FC) (PANC-1 [7]): 2.2
Activity (PANC-1 [8]): Dose-dependent effect
Activity (PANC-1 [9]): 6.9%
Activity (MCF7 [10]): inactive
Activity (MCF7 [11]): 10.9%
Activity (MCF7 [12]): 28.2%
Activity (MCF7 [13]): 17.45%
IC50 (PANC-1 [14]): 114 nM
Activity (MCF7 [15]): >150%
IC50 (NHDF): > 25000 nM
Activity (PANC-1 [16]): Dose-dependent effect
